{"source": "PubChem BioAssay AID1259407", "about": "(Chemical Carcinogenesis Research Information System (CCRIS), 2018)", "test_system": "CCRIS mutagenicity, Ames/micronucleus/aberration tests", "assay": "CCRIS mutagenicity studies", "key": {"[1]": {"settings": "Test System: AMES SALMONELLA TYPHIMURIUM, Strain/Indicator: TA100, Metabolic Activation: NONE, Method: STANDARD PLATE"}, "[2]": {"settings": "Test System: AMES SALMONELLA TYPHIMURIUM, Strain/Indicator: TA100, Metabolic Activation: RAT, LIVER, S-9, AROCLOR 1254, Method: STANDARD PLATE"}}, "note": "The source made the active and inactive calls. The rule behind the calls is not given here."}
{"smiles": "O=C(Cl)c1ccc([N+](=O)[O-])cc1", "values": [{"measurement": "mutagenic call", "setting": "End Point: In vitro chromosomal aberrations, Test System: Chinese hamster lung (CHL/IU) cells, Metabolic Activation: None", "result": "inactive; negative. precipitation observed in culture medium at all doses tested."}, {"measurement": "mutagenic call", "setting": "End Point: In vitro chromosomal aberrations, Test System: Chinese hamster lung (CHL/IU) cells, Metabolic Activation: Rat, Liver, S9, Phenobarbital and 5,6-benzoflavone", "result": "inactive; negative. precipitation observed in culture medium at all doses tested."}, {"measurement": "mutagenic call", "setting": "Test System: AMES SALMONELLA TYPHIMURIUM, Strain/Indicator: TA98, Metabolic Activation: HAMSTER, LIVER, S-9, AROCLOR 1254 (10%), Method: PREINCUBATION", "result": "active; positive"}, {"measurement": "mutagenic call", "setting": "Test System: AMES SALMONELLA TYPHIMURIUM, Strain/Indicator: TA98, Metabolic Activation: HAMSTER, LIVER, S-9, AROCLOR 1254, Method: STANDARD PLATE", "result": "inactive; negative"}, {"measurement": "mutagenic call", "setting": "Test System: AMES SALMONELLA TYPHIMURIUM, Strain/Indicator: TA98, Metabolic Activation: NONE, Method: STANDARD PLATE", "result": "inactive; negative"}, {"measurement": "mutagenic call", "setting": "Test System: AMES SALMONELLA TYPHIMURIUM, Strain/Indicator: TA98, Metabolic Activation: RAT, LIVER, S-9, AROCLOR 1254 (10%), Method: PREINCUBATION", "result": "active; positive"}, {"measurement": "mutagenic call", "setting": "Test System: AMES SALMONELLA TYPHIMURIUM, Strain/Indicator: TA98, Metabolic Activation: RAT, LIVER, S-9, AROCLOR 1254, Method: STANDARD PLATE", "result": "inactive; negative"}, {"measurement": "mutagenic call", "setting": "Test System: AMES SALMONELLA TYPHIMURIUM, Strain/Indicator: TA98, Metabolic Activation: RAT, LIVER, S-9, KANECHLOR 500, Method: PREINCUBATION", "result": "inactive; negative"}, {"measurement": "mutagenic call", "setting": "Test System: AMES SALMONELLA TYPHIMURIUM, Strain/Indicator: TA100, Metabolic Activation: HAMSTER, LIVER, S-9, AROCLOR 1254 (10%), Method: PREINCUBATION", "result": "active; positive"}, {"measurement": "mutagenic call", "setting": "Test System: AMES SALMONELLA TYPHIMURIUM, Strain/Indicator: TA100, Metabolic Activation: HAMSTER, LIVER, S-9, AROCLOR 1254, Method: STANDARD PLATE", "result": "inactive; negative"}, {"measurement": "mutagenic call", "setting": "Test System: AMES SALMONELLA TYPHIMURIUM, Strain/Indicator: TA100, Metabolic Activation: NONE, Method: PREINCUBATION", "result": "active; positive"}, {"measurement": "mutagenic call", "setting": "[1]", "result": "inactive; negative"}, {"measurement": "mutagenic call", "setting": "Test System: AMES SALMONELLA TYPHIMURIUM, Strain/Indicator: TA100, Metabolic Activation: RAT, LIVER, S-9, AROCLOR 1254 (10%), Method: PREINCUBATION", "result": "active; positive"}, {"measurement": "mutagenic call", "setting": "[2]", "result": "inactive; negative"}, {"measurement": "mutagenic call", "setting": "Test System: AMES SALMONELLA TYPHIMURIUM, Strain/Indicator: TA100, Metabolic Activation: RAT, LIVER, S-9, KANECHLOR 500, Method: PREINCUBATION", "result": "active; positive"}, {"measurement": "mutagenic call", "setting": "Test System: AMES SALMONELLA TYPHIMURIUM, Strain/Indicator: TA1535, Metabolic Activation: HAMSTER, LIVER, S-9, AROCLOR 1254 (10%), Method: PREINCUBATION", "result": "active; positive"}, {"measurement": "mutagenic call", "setting": "Test System: AMES SALMONELLA TYPHIMURIUM, Strain/Indicator: TA1535, Metabolic Activation: HAMSTER, LIVER, S-9, AROCLOR 1254, Method: STANDARD PLATE", "result": "inactive; negative"}, {"measurement": "mutagenic call", "setting": "Test System: AMES SALMONELLA TYPHIMURIUM, Strain/Indicator: TA1535, Metabolic Activation: NONE, Method: PREINCUBATION", "result": "active; positive"}, {"measurement": "mutagenic call", "setting": "Test System: AMES SALMONELLA TYPHIMURIUM, Strain/Indicator: TA1535, Metabolic Activation: NONE, Method: STANDARD PLATE", "result": "inactive; negative"}, {"measurement": "mutagenic call", "setting": "Test System: AMES SALMONELLA TYPHIMURIUM, Strain/Indicator: TA1535, Metabolic Activation: RAT, LIVER, S-9, AROCLOR 1254 (10%), Method: PREINCUBATION", "result": "active; positive"}, {"measurement": "mutagenic call", "setting": "Test System: AMES SALMONELLA TYPHIMURIUM, Strain/Indicator: TA1535, Metabolic Activation: RAT, LIVER, S-9, AROCLOR 1254, Method: STANDARD PLATE", "result": "inactive; negative"}, {"measurement": "mutagenic call", "setting": "Test System: AMES SALMONELLA TYPHIMURIUM, Strain/Indicator: TA1537, Metabolic Activation: HAMSTER, LIVER, S-9, AROCLOR 1254 (10%), Method: PREINCUBATION", "result": "active; positive"}, {"measurement": "mutagenic call", "setting": "Test System: AMES SALMONELLA TYPHIMURIUM, Strain/Indicator: TA1537, Metabolic Activation: HAMSTER, LIVER, S-9, AROCLOR 1254, Method: STANDARD PLATE", "result": "inactive; negative"}, {"measurement": "mutagenic call", "setting": "Test System: AMES SALMONELLA TYPHIMURIUM, Strain/Indicator: TA1537, Metabolic Activation: NONE, Method: PREINCUBATION", "result": "active; positive"}, {"measurement": "mutagenic call", "setting": "Test System: AMES SALMONELLA TYPHIMURIUM, Strain/Indicator: TA1537, Metabolic Activation: NONE, Method: STANDARD PLATE", "result": "inactive; negative"}, {"measurement": "mutagenic call", "setting": "Test System: AMES SALMONELLA TYPHIMURIUM, Strain/Indicator: TA1537, Metabolic Activation: RAT, LIVER, S-9, AROCLOR 1254 (10%), Method: PREINCUBATION", "result": "active; positive"}, {"measurement": "mutagenic call", "setting": "Test System: AMES SALMONELLA TYPHIMURIUM, Strain/Indicator: TA1537, Metabolic Activation: RAT, LIVER, S-9, AROCLOR 1254, Method: STANDARD PLATE", "result": "inactive; negative"}, {"measurement": "mutagenic call", "setting": "Test System: AMES SALMONELLA TYPHIMURIUM, Strain/Indicator: TA1538, Metabolic Activation: HAMSTER, LIVER, S-9, AROCLOR 1254, Method: STANDARD PLATE", "result": "inactive; negative"}, {"measurement": "mutagenic call", "setting": "Test System: AMES SALMONELLA TYPHIMURIUM, Strain/Indicator: TA1538, Metabolic Activation: NONE, Method: STANDARD PLATE", "result": "inactive; negative"}, {"measurement": "mutagenic call", "setting": "Test System: AMES SALMONELLA TYPHIMURIUM, Strain/Indicator: TA1538, Metabolic Activation: RAT, LIVER, S-9, AROCLOR 1254, Method: STANDARD PLATE", "result": "inactive; negative"}, {"measurement": "mutagenic call", "setting": "Test System: Ames Salmonella typhimurium, Strain/Indicator: TA100, Metabolic Activation: Rat, Liver, S9, Sodium phenobarbital and 5,6-benzoflavone (10%), Method: Preincubation", "result": "active; positive"}, {"measurement": "mutagenic call", "setting": "Test System: Ames Salmonella typhimurium, Strain/Indicator: TA1535, Metabolic Activation: None, Method: Preincubation", "result": "active; positive"}, {"measurement": "mutagenic call", "setting": "Test System: Ames Salmonella typhimurium, Strain/Indicator: TA1535, Metabolic Activation: Rat, Liver, S9, Sodium phenobarbital and 5,6-benzoflavone (10%), Method: Preincubation", "result": "active; positive"}, {"measurement": "mutagenic call", "setting": "Test System: Ames Salmonella typhimurium, Strain/Indicator: TA1537, Metabolic Activation: None, Method: Preincubation", "result": "inactive; negative"}, {"measurement": "mutagenic call", "setting": "Test System: Ames Salmonella typhimurium, Strain/Indicator: TA1537, Metabolic Activation: Rat, Liver, S9, Sodium phenobarbital and 5,6-benzoflavone (10%), Method: Preincubation", "result": "inactive; negative"}, {"measurement": "mutagenic call", "setting": "Test System: E. coli, Strain/Indicator: WP2uvrA/pKM101, Metabolic Activation: None, Method: Preincubation", "result": "inactive; negative"}, {"measurement": "mutagenic call", "setting": "Test System: E. coli, Strain/Indicator: WP2uvrA/pKM101, Metabolic Activation: Rat, Liver, S9, Sodium phenobarbital and 5,6-benzoflavone (10%), Method: Preincubation", "result": "inactive; negative"}, {"measurement": "mutagenic call", "setting": "Test System: MOUSE LYMPHOMA, Strain/Indicator: L5178Y (TK+/TK-), Metabolic Activation: NONE, Method: SUSPENSION/PLATE", "result": "inactive; negative. reevaluation of results: negative"}, {"measurement": "mutagenic call", "setting": "Test System: MOUSE LYMPHOMA, Strain/Indicator: L5178Y (TK+/TK-), Metabolic Activation: RAT, LIVER, S-9, AROCLOR 1254, Method: SUSPENSION/PLATE", "result": "inactive; negative. reevaluation of results: negative"}]}
{"smiles": "O=C(OCCBr)C(=O)OCCBr", "values": [{"measurement": "mutagenic call", "setting": "[1]", "result": "active; positive"}, {"measurement": "mutagenic call", "setting": "[2]", "result": "active; positive"}]}
